Like-named read-outs stand apart in the source and are kept apart here.
Biological target: T1, integrin αvβ3 (Homo sapiens, UniProt P05106+P06756)
T1 construct: gene ITGAV; purified human αvβ3 Integrin; with integrin αv subunit (ITGAV, P06756)
Assay: SPR (Biacore S200, integrin immobilized on CM5 chip, steady-state model)
Assay type: binding

T1 sequence (P06756 31-889): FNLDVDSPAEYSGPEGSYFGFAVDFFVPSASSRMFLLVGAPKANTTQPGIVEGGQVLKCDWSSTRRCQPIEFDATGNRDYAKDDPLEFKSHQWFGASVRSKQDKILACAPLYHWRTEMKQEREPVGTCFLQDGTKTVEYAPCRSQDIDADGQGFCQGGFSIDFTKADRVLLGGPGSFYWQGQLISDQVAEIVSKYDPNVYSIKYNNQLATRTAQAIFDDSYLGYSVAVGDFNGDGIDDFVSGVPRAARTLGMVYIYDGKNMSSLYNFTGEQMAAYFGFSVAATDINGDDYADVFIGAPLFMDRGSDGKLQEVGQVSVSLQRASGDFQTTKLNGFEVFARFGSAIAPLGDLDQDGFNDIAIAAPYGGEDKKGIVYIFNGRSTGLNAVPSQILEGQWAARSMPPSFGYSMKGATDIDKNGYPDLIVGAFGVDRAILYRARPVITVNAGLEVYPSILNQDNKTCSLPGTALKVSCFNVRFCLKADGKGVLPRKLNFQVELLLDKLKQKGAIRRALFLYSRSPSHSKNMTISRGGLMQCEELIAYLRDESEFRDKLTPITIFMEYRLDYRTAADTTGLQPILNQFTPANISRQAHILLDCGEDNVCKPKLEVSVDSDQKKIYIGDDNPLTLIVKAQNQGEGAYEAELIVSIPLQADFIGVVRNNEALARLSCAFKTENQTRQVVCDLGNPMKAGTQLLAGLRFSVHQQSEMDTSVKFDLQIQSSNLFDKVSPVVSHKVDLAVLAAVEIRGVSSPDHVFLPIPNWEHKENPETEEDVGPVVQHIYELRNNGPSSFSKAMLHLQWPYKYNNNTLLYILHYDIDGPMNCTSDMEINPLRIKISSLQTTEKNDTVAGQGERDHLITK
T1 sequence (P06756 891-1048): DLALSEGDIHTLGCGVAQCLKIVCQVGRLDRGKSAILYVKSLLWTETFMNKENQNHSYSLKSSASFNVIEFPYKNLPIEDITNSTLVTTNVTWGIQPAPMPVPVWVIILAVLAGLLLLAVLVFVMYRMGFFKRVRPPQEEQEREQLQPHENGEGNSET
T1 sequence (P05106 27-788): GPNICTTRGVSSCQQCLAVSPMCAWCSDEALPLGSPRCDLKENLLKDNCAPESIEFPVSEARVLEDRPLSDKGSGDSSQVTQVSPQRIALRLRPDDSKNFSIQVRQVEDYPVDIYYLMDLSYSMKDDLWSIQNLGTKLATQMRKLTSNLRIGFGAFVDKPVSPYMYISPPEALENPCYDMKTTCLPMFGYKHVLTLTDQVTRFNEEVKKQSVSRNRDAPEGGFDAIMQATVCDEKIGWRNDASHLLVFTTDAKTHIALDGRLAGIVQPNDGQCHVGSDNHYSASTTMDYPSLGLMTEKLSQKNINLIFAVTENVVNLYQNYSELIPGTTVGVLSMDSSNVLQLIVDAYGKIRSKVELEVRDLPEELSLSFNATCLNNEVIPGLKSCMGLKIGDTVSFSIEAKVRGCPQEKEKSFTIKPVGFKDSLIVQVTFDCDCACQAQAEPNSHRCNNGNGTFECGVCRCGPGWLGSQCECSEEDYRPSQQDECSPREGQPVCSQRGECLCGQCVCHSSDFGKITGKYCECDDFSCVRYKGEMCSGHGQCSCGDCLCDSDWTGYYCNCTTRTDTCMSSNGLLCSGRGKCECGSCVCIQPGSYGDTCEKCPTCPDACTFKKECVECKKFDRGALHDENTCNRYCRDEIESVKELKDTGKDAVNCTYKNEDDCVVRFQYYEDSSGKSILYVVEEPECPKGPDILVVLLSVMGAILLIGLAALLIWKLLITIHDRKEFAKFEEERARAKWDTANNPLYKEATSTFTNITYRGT

SMILES	Kd	Kd (read-out: Kd)
CC(C)[C@@H](O)CC[C@@H](C)[C@H]1CC[C@H]2[C@@H]3CC=C4C[C@@H](O)CC[C@]4(C)[C@H]3CC[C@]12C [24HC, 24-(S)-hydroxycholesterol]	151 nM	–
C[C@H](CCCC(C)(C)O)[C@H]1CC[C@H]2[C@@H]3CC=C4C[C@@H](O)CC[C@]4(C)[C@H]3CC[C@]12C [25HC, 25-hydroxycholesterol]	–	56.6 nM
